Results taken from patent publication US10829506B2, “Amino- or ammonium-containing sulfonic acid, phosphonic acid and carboxylic acid derivatives and their medical use” (GRI Bio, Inc., priority 2011, dated 2020).
Like-named read-outs stand apart in the source and are kept apart here.

Assays:
RBL-2H3 cells [1] = test: Inhibition of mast cell degranulation (β-hexosaminidase release); assay type: cell-based, rat; details: for IC50: RBL-2H3 cells sensitized with anti-DNP IgE, triggered with DNP-HSA, 1 h preincubation
From the text: Mast cells are key effector cells involved in allergic and inflammatory diseases, and the Rat Basophilic Leukemia clone 2H3 (RBL-2H3) cell line is a commonly used model of allergen dependent immune modulator release (degranulation) in mast cells. On their surface, they express the high affinity receptor for IgE (FcεRI). Upon binding of antigen-specific IgE to the receptor, cells become sensitized to the IgE specific antigen (allergen). When IgE-sensitized cells then encounter multivalent antigen, the antigen clusters IgE-FcεRI complexes and initiates a signal transduction cascade that leads to degranulation, that is, the release of inflammatory mediators, such as cytokines, eicosanoids, histamine and enzymes. The assay can be used as a screening method to identify immune-modulating compounds, in particular compounds useful in the medical management of allergic and inflammatory diseases and asthma, β-hexosaminidase was previously shown to be released with the same kinetics as histamine (Schwartz et al., J Immunology; 123:1445-1450 (1979)), thus offering a simple means to monitor degranulation. The RBL-2H3 cell line has been successfully used to identify compounds with anti-allergic activity (Choo et al. Planta Med., 69:518-522 (2003)).
Cell Culture: RBL-2H3 cells obtained from the German Collection of Microorganisms and Cell Cultures (ACC312) (Braunschweig, Germany) were maintained in 70% Minimum Essential Medium with Earle's Salts, 20% RPMI 1640 Medium, 10% FBS and 2 mM l-glutamine in 95% air/5% CO2 at 37° C. and routinely checked for mycoplasma contamination. Cells were passaged every 3-4 days; after washing cells once with 35 ml PBS cells were incubated 8 min with 5 ml 0.05% Trypsin-EDTA solution at 37° C. Cells were removed from the incubator, 15 ml culture medium was added and cells were resuspended by repeated pipetting.
Cell seeding: cells were harvested with Trypsin-EDTA as described and 50-100 μl cell suspension seeded Into Costar CellBind 24 well cluster plates (no. 3337). Plates were kept for 30 min at RT under the sterile hood before being transferred to the incubator. Cells were used within one or two days after seeding.
For sensitization, cells for immediate use were sensitized 6-12 h after plating; cells to be used the following day were sensitized 26-38 h after plating. Culture plates were removed from the incubator and checked for cell growth and contamination. The medium was discarded and cells were sensitized with anti-DNP IgE (0.4 μg/ml) in 0.4 ml culture medium overnight. Following overnight sensitization, cells were washed with 0.8 ml pre-warmed TyB and 0.38 ml test compound or vehicle control (supplemented or not with 1% FBS) were added to duplicate wells. Samples were adjusted to contain 1% vehicle for test compounds dissolved in organic solvents. Cells were incubated for 1 h at 37° C. At the end of the incubation period, cells were routinely stimulated with 20 μl DNP-HSA (2 μg/ml; final concentration 0.1 μg/ml) diluted in TyB and cells were incubated for 15 min at 37° C. Alternatively, cells were stimulated with 20 μl […] (final concentration 0.25 μM) or 20 nM […] (final concentration 0.25 μM), both in the absence or presence of 20 nM PMA (final concentration).
Plates were removed from the incubator and immediately centrifuged at 4° C. for 5 min at 250×g and transferred to an ice bath. Aliquots of supernatants, 25 μl, were transferred to 96-well plates. Remaining supernatant was aspirated from control wells and cells were lysed in […] lysis buffer for 5 min at RT on an orbital shaker at 450 rpm under non-sterile conditions. After lysis, 25 μl aliquots of lysates were transferred to 96-well plates.
MUG substrate solution, 100 μl, were added to supernatant and lysate samples and plates were incubated 30 min at 37° C. The reaction was terminated by addition of 150 μl stop solution. Fluorescence was measured at 365 nm excitation and 440 nm emission wavelengths. […]

RBL-2H3 cells [2] = test: Maximum tolerated concentration (cytotoxicity by lactate dehydrogenase release); assay type: cell-based, rat
From the text: A commercially available cytotoxicity test was used (Promega Cytotox-One cat. #67891).
The safety index (SI) of a test compound Is the ratio between the maximum tolerated concentration and the 1C50 and is used as a measure of the relative safety of the test compound.

[3] = highest concentration not causing cytotoxicity, LDH release
[4] = ratio between maximum tolerated concentration and IC50
[5] = Rattus norvegicus, 25 μM, RBL-2H3 cells

SMILES: CCCCCCCCCCCC[N+](C)(C)CC(=O)[O-] [Compound 1p, N-Dodecyl-N,N-Dimethylglycine]
- Inhibition of degranulation: % inhibition at 25 μM (RBL-2H3 cells [1]; 25 μM, RBL-2H3 cells): 50%
- MTC (maximum tolerated concentration) (RBL-2H3 cells [2]): 100 µM

SMILES: CCCCCCCCCCCC[N+](C)(C)CCS(=O)(=O)[O-] [Compound 1r, 2-(N,N-Dimethyldodecylammonio)Ethanesulfonate]
- IC50 (RBL-2H3 cells [1]; Rattus norvegicus): 4.2 µM
- MTC (maximum tolerated concentration) (RBL-2H3 cells [2]; [3]): 200 µM
- SI (safety index, ratio MTC/IC50) (RBL-2H3 cells [2]; [4]): 47.6

SMILES: CCCCCCCCCCCC[N+](C)(C)CCC(=O)[O-] [Compound 1m, 3-(Dimethyl(Dodecyl)Ammonio)Propanoate]
- inhibition at 25 µM (RBL-2H3 cells [1]; [5]): 73%
- MTC (maximum tolerated concentration) (RBL-2H3 cells [2]; [3]): 100 µM

SMILES: CCCCCCCCCCCCCC[N+](C)(C)CCCCS(=O)(=O)[O-] [Compound 1e, 4-(N1N-Dimethylmyristylammonio)Butanesulfonate]
- IC50 (RBL-2H3 cells [1]): 3.7 µM
- MTC (maximum tolerated concentration) (RBL-2H3 cells [2]): 150 µM
- SI (safety index, ratio MTC/IC50) (RBL-2H3 cells [2]): 40.5

SMILES: CCCCCCCCCCCCCC[N+](C)(C)CCC(=O)[O-] [Compound 1k, 3-(Dimethyl(Tetradecyl)Ammonio)Propanoate]
- IC50 (RBL-2H3 cells [1]; Rattus norvegicus): 5.3 µM
- MTC (maximum tolerated concentration) (RBL-2H3 cells [2]; [3]): 100 µM
- SI (safety index, ratio MTC/IC50) (RBL-2H3 cells [2]; [4]): 18.9

SMILES: CCCCCCCCCCCCCCCC[N+](C)(C)CCCS(=O)(=O)[O-] [Compound 1h, 3-(N,N-dimethyIpalmitylammonio)propansulfonate]
- IC50 (RBL-2H3 cells [1]): 3.7 µM
- MTC (maximum tolerated concentration) (RBL-2H3 cells [2]): 50 µM
- SI (safety index, ratio MTC/IC50) (RBL-2H3 cells [2]): 13.5

SMILES: CCCCCCCCCCCCCCN(C)CCCC(=O)O [Compound 1n, 4-(Methyl(Tetradecyl)Ammonio)Butanoate]
- IC50 (RBL-2H3 cells [1]; Rattus norvegicus): 8 µM
- MTC (maximum tolerated concentration) (RBL-2H3 cells [2]; [3]): 100 µM
- SI (safety index, ratio MTC/IC50) (RBL-2H3 cells [2]; [4]): 12.5

SMILES: CCCCCCCCCCCCCCN(C)CCS(=O)(=O)O [Compound 1s, 2-(N-Methyltetradecylammonio)Ethanesulfonate]
- IC50 (RBL-2H3 cells [1]; Rattus norvegicus): 5.6 µM
- MTC (maximum tolerated concentration) (RBL-2H3 cells [2]; [3]): 100 µM
- SI (safety index, ratio MTC/IC50) (RBL-2H3 cells [2]; [4]): 17.9

SMILES: CCCCCCCCCCCCCCCCOP(=O)([O-])OCC[N+](C)(C)C [Miltefosine, reference compound]
- IC50 (RBL-2H3 cells [1]; Rattus norvegicus): 4.2 µM
- MTC (maximum tolerated concentration) (RBL-2H3 cells [2]; rat): 25 µM
- SI (safety index, ratio MTC/IC50) (RBL-2H3 cells [2]; rat): 6.0

SMILES: CCCCCCCCCCCCCCCCCC[N+](C)(C)CCCS(=O)(=O)[O-] [Compound 1g, 3-(N,N-Dimethyloctadecylammonio)Propanesulfonate]
- IC50 (RBL-2H3 cells [1]; Rattus norvegicus): 9.5 µM
- MTC (maximum tolerated concentration) (RBL-2H3 cells [2]; [3]): 50 µM
- SI (safety index, ratio MTC/IC50) (RBL-2H3 cells [2]; [4]): 5.3

SMILES: CCCCCCCCCCCCCC[N@+]1(CCCS(=O)(=O)[O-])CCC[C@H](C(=O)N(CC)CC)C1 (racemic) [Compound 2c, Trans-N-Tetradecyl-N-(3-Sulfonatopropyl)-3-Diethylaminocarbonyl-Piperidinium]
- inhibition at 25 µM (RBL-2H3 cells [1]; [5]): 50%
- MTC (maximum tolerated concentration) (RBL-2H3 cells [2]; [3]): 100 µM

SMILES: CCCCCCCCCCCCCCCCN(C)CCCP(=O)(O)O [Compound 1v, 3-(N-Methyl-N—Hexadecylamino)Propylphosphonic Acid]
- IC50 (RBL-2H3 cells [1]; Rattus norvegicus): 8.8 µM
- MTC (maximum tolerated concentration) (RBL-2H3 cells [2]; [3]): 200 µM
- SI (safety index, ratio MTC/IC50) (RBL-2H3 cells [2]; [4]): 22.7

SMILES: CCCCCCCCCCCCCC[N+](C)(C)CCCC(=O)[O-] [Compound 1o, 4-(Dimethyl(Tetradecyl)Ammonio)Butanoate]
- inhibition at 25 µM (RBL-2H3 cells [1]; [5]): 65%
- MTC (maximum tolerated concentration) (RBL-2H3 cells [2]; [3]): 100 µM

SMILES: CCCCCCCCCCCCCCN(C)CCCP(=O)(O)O [Compound 1u, 3-(N-Methyl-N-Tetradecylamino)Propylphosphonic Acid (Betaine)]
- IC50 (RBL-2H3 cells [1]): 5.9 µM
- MTC (maximum tolerated concentration) (RBL-2H3 cells [2]; [3]): 200 µM
- SI (safety index, ratio MTC/IC50) (RBL-2H3 cells [2]; [4]): 33.9

SMILES: CCCCCCCCCCCCCC[N+](C)(C)CCS(=O)(=O)[O-] [Compound 1d, 2-(N,N-Dimethyltetradecylammonio)Ethanesulfonate]
- IC50 (RBL-2H3 cells [1]; Rattus norvegicus): 3.9 µM
- MTC (maximum tolerated concentration) (RBL-2H3 cells [2]; [3]): 100 µM
- SI (safety index, ratio MTC/IC50) (RBL-2H3 cells [2]; [4]): 25.6

SMILES: CCCCCCCCCCCCN(C)CCS(=O)(=O)O [Compound 1q, 2-(N-Methyldodecylammonio)Ethanesulfonate]
- IC50 (RBL-2H3 cells [1]; Rattus norvegicus): 8.8 µM
- MTC (maximum tolerated concentration) (RBL-2H3 cells [2]; [3]): 200 µM
- SI (safety index, ratio MTC/IC50) (RBL-2H3 cells [2]; [4]): 22.7

SMILES: Br.CCCCCCCCCCCCCCCCN(C)CCCP(=O)(OCC)OCC [Compound 1w, 3-(N-Methyl-N—Hexadecylamino)Propylphosphonic Acid Diethylester Hydrobromide]
- IC50 (RBL-2H3 cells [1]; Rattus norvegicus): 6.9 µM
- MTC (maximum tolerated concentration) (RBL-2H3 cells [2]; [3]): 200 µM
- SI (safety index, ratio MTC/IC50) (RBL-2H3 cells [2]; [4]): 29.0

SMILES: CCCCCCCCCCCCCCN(C)CCCS(=O)(=O)O [Compound 1b, 3-(N-Methyltetracylammonio)Propanesulfonate]
- IC50 (RBL-2H3 cells [1]): 4.3 µM
- MTC (maximum tolerated concentration) (RBL-2H3 cells [2]): 100 µM
- SI (safety index, ratio MTC/IC50) (RBL-2H3 cells [2]): 23.3

SMILES: CCCCCCCCCCCCCCCC[N+]1(CCCS(=O)(=O)[O-])CCCCC1 [Compound 2a, N—Hexadecyl-N-(3-Sulfonatopropyl)Piperidinium]
- IC50 (RBL-2H3 cells [1]; Rattus norvegicus): 4.5 µM
- MTC (maximum tolerated concentration) (RBL-2H3 cells [2]; [3]): 50 µM
- SI (safety index, ratio MTC/IC50) (RBL-2H3 cells [2]; [4]): 11.1

SMILES: CCCCCCCCCCCCCC[N+](C)(C)CC(CC)CS(=O)(=O)[O-] (centres unmarked) [Compound 1f, 2-((Dimethyl(Tetradecyl)Ammonio)Methyl)Butane-1-Sulfonate]
- IC50 (RBL-2H3 cells [1]; Rattus norvegicus): 4 µM
- MTC (maximum tolerated concentration) (RBL-2H3 cells [2]; [3]): 75 µM
- SI (safety index, ratio MTC/IC50) (RBL-2H3 cells [2]; [4]): 18.8

SMILES: CCCCCCCCCCCC[N+](C)(C)CCCP(=O)(O)O [Compound 1t, 3-(N,N-Dimethyldodecylammonio)Propylphosphonic Acid]
- IC50 (RBL-2H3 cells [1]): 6.1 µM
- MTC (maximum tolerated concentration) (RBL-2H3 cells [2]; [3]): 200 µM
- SI (safety index, ratio MTC/IC50) (RBL-2H3 cells [2]; [4]): 32.8

SMILES: CCCCCCCCCCCCCC[N+](C)(C)CC(=O)[O-] [Compound 1j, N-Tetradecyl-N,N-Dimethylglycine]
- IC50 (RBL-2H3 cells [1]): 5.1 µM
- MTC (maximum tolerated concentration) (RBL-2H3 cells [2]; [3]): 75 µM
- SI (safety index, ratio MTC/IC50) (RBL-2H3 cells [2]; [4]): 14.7

SMILES: Br.CCCCCCCCCCCCCCN(C)CCCP(=O)(OCC)OCC [Compound 1x, 3-(N-Methyl-N-Tetradecylamino)Propylphosphonic Acid Diethyiester Hydrobromide]
- IC50 (RBL-2H3 cells [1]): 5.5 µM
- MTC (maximum tolerated concentration) (RBL-2H3 cells [2]; [3]): 100 µM
- SI (safety index, ratio MTC/IC50) (RBL-2H3 cells [2]; [4]): 18.2

SMILES: CCCCCCCCCCCCCCCC[N+]1(CCCS(=O)(=O)[O-])CCC(O)CC1 (centres unmarked) [Compound 2b, 1-Hexadecyl-1-(3-Sulfonatopropyl)-4-Hydroxypiperidinium]
- IC50 (RBL-2H3 cells [1]; Rattus norvegicus): 4.3 µM
- MTC (maximum tolerated concentration) (RBL-2H3 cells [2]; [3]): 50 µM
- SI (safety index, ratio MTC/IC50) (RBL-2H3 cells [2]; [4]): 11.6

SMILES: CCCCCCCCCCCC[N+](C)(C)CCCS(=O)(=O)[O-] [Compound 1i, 3-(N,N-dimethyldodecyl-ammonio) propanesulfonate]
- IC50 (RBL-2H3 cells [1]): 4.1 µM
- MTC (maximum tolerated concentration) (RBL-2H3 cells [2]): 200 µM
- SI (safety index, ratio MTC/IC50) (RBL-2H3 cells [2]): 48.8
